Here are results for 18 molecules from ChEMBL document CHEMBL1127224, “Peptidomimetic inhibitors of human immunodeficiency virus protease (HIV-PR): Design, enzyme binding and selectivity, antiviral efficacy, and cell permeability properties” (Bioorg Med Chem Lett, 1993).

pIC50, pKi: −log10 of the molar value.

For assay [1], the system named is CV-1. Kind of assay: Antiviral efficacy measured by a hybrid HIV-l/vaccinia virus infected monkey cell line (HIV- l/vVK-1 infected CV- 1) which produces HIV-1 gag-pol derived polyproteins. In kind it is functional, cell-based, Human immunodeficiency virus 1. The conditions noted are these: Chlorocebus aethiops.
The test system of assay [2] is CV-1. Kind of assay: Antiviral efficacy measured by a hybrid HIV-l/vaccinia virus infected monkey cell line (HIV- l/vVK-1 infected CV- 1) which produces HIV-1 gag-pol derived polyproteins at 10 uM concentration. In kind it is functional, Human immunodeficiency virus 1. The settings on record: Chlorocebus aethiops.
Assay [3] has as its target Human immunodeficiency virus type 1 protease (Human immunodeficiency virus 1, UniProt Q72874). Kind of assay: Evaluated for inhibitory activity against HIV-1 protease.
The target in assay [4] is T1, Cathepsin E (Homo sapiens, UniProt P14091).
T1 sequence (P14091 whole entry): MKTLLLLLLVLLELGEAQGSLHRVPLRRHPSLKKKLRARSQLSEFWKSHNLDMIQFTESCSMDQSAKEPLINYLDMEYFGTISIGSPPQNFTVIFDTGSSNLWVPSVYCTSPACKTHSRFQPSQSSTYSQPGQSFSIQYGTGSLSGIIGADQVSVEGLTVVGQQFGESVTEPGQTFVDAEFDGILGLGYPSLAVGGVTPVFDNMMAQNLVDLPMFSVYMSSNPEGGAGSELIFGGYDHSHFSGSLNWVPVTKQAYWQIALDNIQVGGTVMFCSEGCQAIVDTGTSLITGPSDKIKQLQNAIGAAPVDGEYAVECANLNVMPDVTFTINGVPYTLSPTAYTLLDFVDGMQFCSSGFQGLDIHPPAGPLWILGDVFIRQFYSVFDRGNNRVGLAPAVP
Briefly: Compound was evaluated for aspartyl protease inhibition selectivity relative to Cathepsin E.

In assay [5] the target is Cathepsin D (Homo sapiens, UniProt P07339). Briefly: Compound was evaluated for aspartyl protease inhibition selectivity relative to Cathepsin D.
For assay [6], the target named is Pepsin A (Sus scrofa, UniProt P00791). Briefly: Compound was evaluated for aspartyl protease inhibition selectivity relative to pepsin. Also noted: species or system Homo sapiens.
The target in assay [7] is T2, Renin (Homo sapiens, UniProt P00797).
T2 sequence (P00797 whole entry): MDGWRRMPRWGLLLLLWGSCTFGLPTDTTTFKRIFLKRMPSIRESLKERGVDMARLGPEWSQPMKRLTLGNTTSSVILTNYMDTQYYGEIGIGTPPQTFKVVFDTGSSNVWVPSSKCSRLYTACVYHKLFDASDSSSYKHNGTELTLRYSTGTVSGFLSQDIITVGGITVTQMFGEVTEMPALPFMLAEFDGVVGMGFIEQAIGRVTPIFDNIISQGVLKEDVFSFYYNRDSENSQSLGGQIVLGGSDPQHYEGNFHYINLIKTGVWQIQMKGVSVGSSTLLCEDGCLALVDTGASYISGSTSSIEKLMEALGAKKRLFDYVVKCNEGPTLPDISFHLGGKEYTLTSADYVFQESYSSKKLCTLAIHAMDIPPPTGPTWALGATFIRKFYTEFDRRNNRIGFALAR
Kind of assay: Compound was evaluated for aspartyl protease inhibition selectivity relative to renin.

Sequence of Pepsin A (P00791 whole entry): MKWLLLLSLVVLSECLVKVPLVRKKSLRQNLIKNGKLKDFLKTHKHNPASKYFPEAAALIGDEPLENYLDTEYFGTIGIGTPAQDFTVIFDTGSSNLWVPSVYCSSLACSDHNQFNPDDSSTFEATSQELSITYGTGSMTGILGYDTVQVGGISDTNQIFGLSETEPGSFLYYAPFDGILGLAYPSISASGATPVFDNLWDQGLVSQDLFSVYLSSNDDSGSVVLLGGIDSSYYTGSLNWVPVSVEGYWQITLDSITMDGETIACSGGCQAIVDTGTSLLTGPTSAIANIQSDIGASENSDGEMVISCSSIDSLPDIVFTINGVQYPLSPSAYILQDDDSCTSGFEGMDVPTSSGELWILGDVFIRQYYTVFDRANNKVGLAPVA
Sequence of Cathepsin D (P07339 65-162 limits assumed): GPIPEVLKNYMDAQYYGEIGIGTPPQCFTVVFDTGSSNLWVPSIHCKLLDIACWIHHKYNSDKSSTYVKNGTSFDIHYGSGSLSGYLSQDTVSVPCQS
Sequence of Cathepsin D (P07339 169-412 limits assumed): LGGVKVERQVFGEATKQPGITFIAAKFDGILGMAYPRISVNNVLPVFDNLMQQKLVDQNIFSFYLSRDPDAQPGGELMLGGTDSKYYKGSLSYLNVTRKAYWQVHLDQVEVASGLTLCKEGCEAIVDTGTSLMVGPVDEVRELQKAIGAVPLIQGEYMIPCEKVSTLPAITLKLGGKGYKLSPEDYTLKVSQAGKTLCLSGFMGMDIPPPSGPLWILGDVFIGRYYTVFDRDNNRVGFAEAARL

The term pIC50 denotes the negative decadic logarithm of the IC50, by convention in mol/L. By inhibition is commonly meant the relative decrease from the control value, in per cent. As usually defined, the pKi is the Ki on a negative log10 scale, so that one unit is a factor of ten. Regarding `CCC(C)[C@H](NC(=O)[C@@H](C[C@H](O)[C@H](CC1CCCCC1)NC(=O)c1ccccn1)C(C)C)C(=O)NCc1ccccn1` (some centres undefined), the pIC50 in assay [1] was 6.52. Also, 10 µM produced 100% inhibition in assay [2]. Also, in assay [3], the pKi was 8.10.
Molecule `CC[C@H](C)[C@H](NC(=O)[C@@H](C[C@H](O)[C@@H](N)CC1CCCCC1)C(C)C)C(=O)NCc1ccccn1` registered an inhibition at 10 µM in assay [2] of 0%. This molecule had a pKi in assay [3] of 6.10.
The like results for `CC[C@H](C)[C@H](NC(=O)[C@@H](C[C@H](O)[C@H](CC1CCCCC1)NC(C)=O)C(C)C)C(=O)NCc1cccc[n+]1[O-]` were, in that order, 20% and 7.80.
The molecule `CCC(C)[C@H](NC(=O)[C@@H](C[C@H](O)[C@H](CC1CCCCC1)NC(=O)COc1ccccc1)C(C)C)C(=O)NCc1ccccn1` (some centres undefined) showed a pIC50 in assay [1] of 5.52. The molecule further showed an inhibition at 10 µM in assay [2] of 90%. The pKi in assay [3] is 7.21.
As to `CCC(C)[C@H](NC(=O)[C@@H](C[C@H](O)[C@H](CC1CCCCC1)NC(=O)OC(C)(C)C)C(C)C)C(=O)NCc1ccccn1` (some centres undefined), in assay [1], the pIC50 is 6.52. Further, in assay [2], at 10 µM the inhibition was 100%. Besides, the pKi is 7.05 in assay [4]; 7.00 in assay [5]; 6.48 in assay [6]; 5.92 in assay [7]; 8.10 in assay [3].
For the molecule `CCC(C)[C@H](NC(=O)[C@@H](C[C@H](O)[C@H](CC1CCCCC1)NC(=O)[C@@H](NC(=O)COc1cccc2ccccc12)C(C)C)C(C)C)C(=O)NCc1ccccn1` (some centres undefined), the pIC50 in assay [1] is 6.52. For the same molecule, the inhibition at 10 µM in assay [2] came to 93%. In assay [3], this molecule had a pKi of 7.21.
`CC[C@H](C)[C@H](NC(=O)[C@@H](C[C@H](O)[C@H](CC1CCCCC1)NC(C)=O)C(C)C)C(=O)NCc1ccccn1` came in with an inhibition at 10 µM in assay [2] of 50%. In assay [3], this molecule gave a pKi of 8.10.
As for `CCC(C)[C@H](NC(=O)[C@@H](C[C@H](O)[C@H](CC1CCCCC1)NC(=O)[C@H](CC(N)=O)NC(=O)c1ccc2ccccc2n1)C(C)C)C(=O)NCc1ccccn1` (some centres undefined), the pIC50 in assay [1] was 6.52. For the same molecule, the inhibition at 10 µM in assay [2] is 97%. Moreover, the negative logarithm of the Ki (pKi) in assay [4] was 8.52; in assay [5], 8.70; in assay [6], 7.92; in assay [7], 6.67; in assay [3], 8.05.
`CC[C@H](C)[C@H](NC(=O)[C@H](C(C)C)[C@@H](O)[C@H](O)[C@H](CC1CCCCC1)NC(=O)[C@H](Cc1c[nH]cn1)NC(=O)COc1cccc2ccccc12)C(=O)NCc1ccccn1`: in assay [1], the pIC50 was 6.70. This molecule came in with an inhibition at 10 µM in assay [2] of 100%. The pKi in assay [4] is 6.85; in assay [5], less than 6.00; in assay [6], 6.58; in assay [7] it was 8.70; in assay [3] it was greater than 9.00.
The molecule `CC(C)[C@H](C[C@H](O)[C@H](CC1CCCCC1)NC(=O)C(CC(N)=O)NC(=O)c1ccc2ccccc2n1)C(=O)NCC(C)(C)C` (some centres undefined) showed a negative logarithm of the IC50 (pIC50) in assay [1] of 6.52. Further, at 10 µM the inhibition in assay [2] was 70%. In assay [3], this molecule showed a pKi of 7.85.
The like results for `CCC(C)[C@H](NC(=O)[C@@H](C[C@H](O)[C@H](CC1CCCCC1)NC(=O)CC(C)(C)C)C(C)C)C(=O)NCc1ccccn1` (some centres undefined) were, in that order, 5.52, 75% and 7.12.
The like results for `CCC(C)[C@H](NC(=O)[C@@H](C[C@H](O)[C@H](CC1CCCCC1)NC(=O)[C@H](Cc1cn(C)cn1)NC(=O)COc1cccc2ccccc12)C(C)C)C(=O)NCc1ccccn1` (some centres undefined) were, in that order, 6.30, 85% and 7.52.
The like results for `CCCCCC(=O)N[C@@H](CC1CCCCC1)[C@@H](O)C[C@H](C(=O)N[C@H](C(=O)NCc1ccccn1)C(C)CC)C(C)C` (some centres undefined) were, in that order, 5.52, 67% and 7.33.
In assay [2], `CC[C@@H](C)[C@@H](NC(=O)[C@@H](C[C@H](O)[C@H](CC1CCCCC1)NC(C)=O)C(C)C)C(=O)NCc1ccccn1` came in with an inhibition at 10 µM of 22%. The pKi in assay [3] was less than 6.00.
Molecule `CCC(C)[C@H](NC(=O)[C@@H](C[C@H](O)[C@H](CC1CCCCC1)NC(=O)[C@H](CC(N)=O)NC(=O)c1ccc2ccccc2n1)C(C)C)C(=O)O` (some centres undefined) yielded an inhibition at 10 µM in assay [2] of 0%.
For `CCC(C)[C@H](NC(=O)[C@@H](C[C@H](O)[C@H](CC1CCCCC1)NC(=O)[C@H](Cc1cnc[nH]1)NC(=O)OC(C)(C)C)C(C)C)C(=O)NCc1ccccn1` (some centres undefined), the pIC50 in assay [1] is 5.00. Besides, the inhibition at 10 µM in assay [2] came out at 53%. The pKi in assay [3] is 8.00.
For `CCC(C)[C@H](NC(=O)[C@@H](C[C@H](O)[C@H](CC1CCCCC1)NC(=O)[C@H](CC(N)=O)NC(=O)COc1cccc2ccccc12)C(C)C)C(=O)NCc1ccccn1` (some centres undefined) the same measures were 6.52, 93% and 8.40.
The molecule `CCC(C)[C@H](NC(=O)[C@@H](C[C@H](O)[C@H](CC1CCCCC1)NC(=O)[C@H](Cc1c[nH]cn1)NC(=O)COc1cccc2ccccc12)C(C)C)C(=O)NCc1ccccn1` (some centres undefined) showed a pIC50 in assay [1] of 6.52. This molecule came in with an inhibition at 10 µM in assay [2] of 100%. Besides, the pKi in assay [4] was 7.30; in assay [5], 6.70; in assay [6], 6.54; in assay [7], 8.70; in assay [3], 8.30.
